Results on twelve molecules are retold here after publication PMC9400670, “Establishing the selective phospholipid membrane coordination, permeation and lysis properties for a series of ‘druggable’ supramolecular self-associating antimicrobial amphiphiles” (Chemical Science, 2022).

The term MIC50 denotes an inhibitory concentration at the 50% level, which refers to growth in some studies and to a panel of isolates in others. For orientation: inhibition means the share of the control response that was lost under treatment.

In brackets after ≈: the same amount, converted by molar mass. Some results are limits rather than exact numbers.

The test system of one test is MRSA USA300. The test can be described thus: MIC50 determination and initial screening from OD600 growth curves, MRSA USA300. The test is classed as cell-based, Staphylococcus aureus. From the text: The antimicrobial activity of SSAs 1–14 was established against both a model Gram-positive, clinically relevant methicillin resistant Staphylococcus aureus (MRSA), and a model Gram-negative, E. coli bacteria, Table 1. Here MIC50 values are given in mM to enable the derivation of molecular structure: antimicrobial efficacy: physical property relationships. […]
Data were acquired in endpoint mode. […]
Section 3: Microbial Methods
These methods were taken directly from UK Health and Security Office (UKHSA) standard operating […]
Preparation of Luria Broth media (LB): Yeast extract (5 g), tryptone (10 g) and sodium chloride (10 g) were dissolved in dH₂O (1 L) then divided into bottles and autoclaved.
Preparation of Luria Broth (LB) agar plates: Agar (6 g) was added to LB (400 mL) and autoclaved. Once cool, the LB agar was poured into sterile petri dishes under sterile conditions and allowed to set. LB plates were stored at 4 °C until use.
Preparation of bacterial plates: Sterile LB agar plates were streaked using Escherichia coli DH10B or USA300 Methicillin-Resistant Staphylococcus aureus then incubated at 37 °C overnight.
Preparation of Inoculum: An initial culture was made up by inoculating LB media (5 mL) with a single colony of bacteria under sterile conditions and incubated at 37 °C with shaking overnight. The following day, overnight bacterial cultures were subcultured into fresh LB medium to a starting OD600 […]
Preparation of 96 well microplate for screening: 20 mM solutions of each compound to be tested were made up using 5 % ethanol. The 1:100 cell suspension (150 µL) was pipetted into the wells and SSA compound solutions (30 µL) were added into each well. The final screening concentration for each compound was 3.3 mM in the well. These were incubated for 20 hours in a plate reader, with optical density readings being taken at 600 nm every 15 minutes. Optical density readings were plotted against time to produce growth curves. […]
individual wells under sterile conditions. Compounds (30 µL) were added to the wells to equal a total volume of 180 µL in the wells. Six repeats of each concentration for each compound were created each plate. The plates were sealed using parafilm, then incubated at 37°C in a microplate reader for 18-25 hours. Optical density readings were taken at 600 nm every 15 min. Data was used to generate […]
Calculation of MIC50: Growth curves were plotted using OD600 optical density readings in Microsoft ® Excel ® 2013. OD600 optical density readings 900 minutes from the start of each of these growth cultures for each concentration of compound were plotted in Origin ® 2015. The resultant curve was normalized and fitted using the Boltzmann fit to define the MIC50 values for each compound.

In a further test the test system is E. coli DH10B. The following applies: cited from earlier work; for MIC50 E. coli: E. coli DH10B, n = 3, 0.5 McFarland standard, number in bracket = efficacy rank.
A further test concerns PC lipid vesicles. The test can be described thus: Synthetic phospholipid vesicle membrane binding assay (fluorescence polarisation), PC vesicles. The following applies: lipid vesicles added to SSA (0.15 mM); n = 3; error = standard error; SSA alone set to 100 mP. As to the method: (§1) For intrinsically fluorescent SSAs 5, 6 and 8–12, FP titration experiments enabled the observation of SSA: phospholipid vesicle interactions. Here, an increase in FP value indicates an increase in the apparent size of the SSA as it interacts with the phospholipid vesicle. […]
(§2) Fluorescence polarisation: Lipid films were resuspended in Buffer (150 mM KCl, 10 mM HEPES, pH 7.4, 2 mM EGTA) and subjected to 9 freeze-thaw cycles in liquid nitrogen and extruded 20 times through a 200 nm polycarbonate membrane. Black bottom 96-well plates were prepared by serially diluting desired vesicle solution across the plate, the appropriate SSA solution (100 µL, 0.15 mM) was added to each well to give a total well volume of 200 µL. Fluorescent SSA solutions were set to a FP value of 100 mP. Data were acquired in endpoint mode. […]
For orientation: In fluorescence polarisation assays a small probe gives low polarisation when free and higher when bound to something large.

The next test deals with PE-PG mix lipid vesicles. Description: Synthetic phospholipid vesicle membrane binding assay (fluorescence polarisation), PE-PG mix vesicles. The following applies: lipid vesicles added to SSA (0.15 mM); n = 3; error = standard error; SSA alone set to 100 mP. As to the method:
as §1, §2

The mark [1] stands for this setting: Staphylococcus aureus, 15 h, Table S3, conversion of the mM values of Table 1, MRSA USA300, after 900 mins.
[2] abbreviates: Staphylococcus aureus, 15 h, MRSA USA300, n = 3, 0.5 McFarland standard, after 900 min, number in bracket = efficacy rank, SSA 11 estimated due to data quality.

In turn, `O=C(NCS(=O)(=O)O)Nc1ccc(C(F)(F)F)cc1` [SSA 1] returned an MIC50 with MRSA USA300 (setting [1]) of 248 µg/mL. Moreover, the “MIC50 E. coli” value with E. coli DH10B (after 900 min) is 3.85(7) mM.
In the case of `O=C(NCCCS(=O)(=O)O)Nc1ccc(C(F)(F)F)cc1` [SSA 2], the “MIC50 E. coli” value in the test with E. coli DH10B (after 900 min) was 1.48(3) mM.
Take `O=C(NCS(=O)(=O)O)Nc1ccc(C(F)(F)F)cc1` [SSA 3]: in the test with MRSA USA300 (Table S3, conversion of the mM values of Table 1, MRSA USA300, after 900 mins), the “MIC50 MRSA” value is given as 132 µg/mL (≈ 443 µM). Also, in the test on E. coli DH10B (3.3 mM, after 900 min), the “initial antimicrobial screening, inhibition of growth, E. coli” value was “^c (SSA did not pass initial antimicrobial screening, exhibited <10% inhibition of growth at 3.3 mM after 900 min and therefore excluded from further study)”. In addition, in the test with E. coli DH10B (Table S3, screening at 3.3 mM), the “initial antimicrobial screening outcome, E. coli” value is “Fail”.
The molecule `O=C(O)CNC(=O)Nc1ccc(C(F)(F)F)cc1` [SSA 4] displayed an MIC50 with MRSA USA300 (setting [1]) of 574 µg/mL. Moreover, in the test on E. coli DH10B (after 900 min), the “MIC50 E. coli” value is on record as 1.25(2) mM.
As to `O=C(NCS(=O)(=O)O)Nc1ccccc1-c1nc2ccccc2s1` [SSA 5], the MIC50 against MRSA USA300 (setting [1]) is 599 µg/mL. Also, the “increase in FP, PC” value in the test on PC lipid vesicles was 87 ± 4 mP. In addition, in the test with PE-PG mix lipid vesicles, the “increase in FP, PE-PG mix” value was 36 ± 3 mP. Also, the “MIC50 E. coli” value in the test on E. coli DH10B (after 900 min) is 3.57(5) mM.
For the molecule `Cc1ccc2nc(-c3ccc(NC(=O)NCS(=O)(=O)O)cc3)sc2c1` [SSA 6], in the test with MRSA USA300 (setting [1]), the MIC50 stood at 576 µg/mL. For the same molecule, the “increase in FP, PC” value with PC lipid vesicles came to 47 ± 8 mP. The “increase in FP, PE-PG mix” value in the test with PE-PG mix lipid vesicles is given as 9 ± 1 mP. Also, the “MIC50 E. coli” value with E. coli DH10B (after 900 min) is 5.02(8) mM.
For the molecule `Cc1ccc2nc(NC(=O)NCS(=O)(=O)O)sc2c1` [SSA 7], in the test with MRSA USA300 (Staphylococcus aureus, 15 h, 3.3 mM, after 900 min, read-out: initial antimicrobial screening, inhibition of growth, MRSA), the inhibition at 3300 µM is under 10%. Moreover, the “initial antimicrobial screening outcome, MRSA” value in the test on MRSA USA300 (Table S3, screening at 3.3 mM) is “Fail”.
Regarding `O=C(NCS(=O)(=O)O)Nc1ccc(-c2nc3ccccc3s2)cc1` [SSA 8], the results for the MIC50 in the test with MRSA USA300 (setting [2]) and in the test on MRSA USA300 (setting [1]) were 1150 µM and 696 µg/mL, respectively. Moreover, the “increase in FP, PC” value with PC lipid vesicles was found to be 35 ± 4 mP. The “increase in FP, PE-PG mix” value in the test with PE-PG mix lipid vesicles is 32 ± 1 mP.
For `Cc1ccc2nc(-c3ccc(NC(=O)NCCC(=O)O)cc3)sc2c1` [SSA 9], the MIC50 is 1200 µM in the test on MRSA USA300 (setting [2]) and 760 µg/mL against MRSA USA300 (setting [1]). Besides, the “increase in FP, PC” value in the test on PC lipid vesicles amounted to 35 ± 10 mP. Also, the “increase in FP, PE-PG mix” value in the test with PE-PG mix lipid vesicles was determined as 35 ± 2 mP.
For `Cc1ccc2nc(-c3ccc(NC(=O)NCCCS(=O)(=O)O)cc3)sc2c1` [SSA 10], in that order: 590 µM, 382 µg/mL, 26 ± 1 mP and 21 ± 2 mP.
With `Cc1ccc2nc(-c3ccc(NC(=O)NCC(=O)O)cc3)sc2c1` [SSA 11], the MIC50 was 310 to 630 µM with MRSA USA300 (setting [2]) and 181 to 367 µg/mL against MRSA USA300 (setting [1]). The “increase in FP, PC” value in the test on PC lipid vesicles turned out to be 68 ± 1 mP. For the same molecule, the “increase in FP, PE-PG mix” value in the test on PE-PG mix lipid vesicles is reported as 45 ± 2 mP.
Take `Cc1ccc2nc(-c3ccc(NC(=S)NCS(=O)(=O)O)cc3)sc2c1` [SSA 12]: the “increase in FP, PC” value with PC lipid vesicles is on record as 163 ± 6 mP. Besides, the “increase in FP, PE-PG mix” value in the test with PE-PG mix lipid vesicles is 107 ± 3 mP.
